{"source": "patent US12527849B2", "about": "“Apparatus for determining administration form of a composition of an engineered virus-based nanoparticle for a treatment of an autoimmune condition” (Diamante Srl, priority 2021, dated 2026)", "format_in_all_cases": "in vivo", "key": {"IL-10": {"test_system": "IL-10", "test": "Cytokine ELISA in CIA mice, day 60: IL-10", "details": "serum pooled from five CIA mice", "text": "(§1) With continued reference to FIG. 1, in some embodiments, administration 116 may be done to an animal. As a non-limiting example, the animal may include a mouse, a fish, a rabbit, human, and the like. As a non-limiting example, administration 116 of composition of the engineered virus-based nanoparticle for a treatment of an autoimmune condition may be done to dilute, brown, and non-agouti (DBA) mice based on their susceptibility to collagen-induced arthritis (CIA). Female DBA/1 mice 6 to 8 weeks of age may be maintained under specific pathogen-free conditions. CIA may be induced by the intradermal tail base injection of 100 μg of chicken type II collagen (Sigma-Aldrich) as previously described. Five mice per group may be immunized on days 0 and 21 to induce arthritis. The onset of disease may be confirmed on the day that swelling or erythema may be observed in any paw, typically 4 to 10 days after the second immunization. Each experimental group may be treated seven times, 5 days apart, starting from day 28 after the first immunization, with intraperitoneal injections of saline (200 μI per mouse), TBSV·pLIp1, TBSV·pFADK2, pLIp1+IFA, and pFADK2+IFA (all 50 μg per mouse in 200 μl) or dexamethasone (5 μg per mouse in 200 μl). […] CIA may be assessed using a macroscopic score system based on the visual identification of arthritic limbs."}, "TNF-α": {"test_system": "TNF-α", "test": "Cytokine ELISA in CIA mice, day 60: TNF-α", "text": "as §1, with “immunization.” for “immunization. Each experimental group may be treated seven times, 5 days apart, starting from day 28 after the first immunization, with intraperitoneal injections of saline (200 μI per mouse), TBSV·pLIp1, TBSV·pFADK2, pLIp1+IFA, and pFADK2+IFA (all 50 μg per mouse in 200 μl) or dexamethasone (5 μg per mouse in 200 μl).”, “limbs. The clinical severity of arthritis may be evaluated as follows: Each mouse may be inspected every 2 to 3 days for three different parameters: (i) swelling of the hind ankle and foot, measured with calipers; (ii) erythema of each leg; and (iii) swelling of the fingers. The RA index for each mouse was expressed as the mean of the three scores from the individual parameters. At the end of the experiment (60 days), we determined the proportion of CD25+Foxp3+ cells in the lymph nodes and measured cytokine titers in the lymph nodes, joints, and serum.” for “limbs.”\n(§2) With continued reference to FIG. 1, in some embodiments, processor 104 may determine critical administration 124 as a function of a cytokine profile and a proportion of CD25^+ Foxp3^+ cells. […] In some embodiments, to quantify cytokines in DBA mice, joint tissues may be pulverized and resuspended in 1 ml of lysis medium per 100-mg joint weight for 60 min at 37′C, followed by centrifugation to remove debris. […]"}, "IL-1β": {"test_system": "IL-1β", "test": "Cytokine ELISA in CIA mice, day 60: IL-1β", "text": "as §1, with “immunization.” for “immunization. Each experimental group may be treated seven times, 5 days apart, starting from day 28 after the first immunization, with intraperitoneal injections of saline (200 μI per mouse), TBSV·pLIp1, TBSV·pFADK2, pLIp1+IFA, and pFADK2+IFA (all 50 μg per mouse in 200 μl) or dexamethasone (5 μg per mouse in 200 μl).”, “limbs. The clinical severity of arthritis may be evaluated as follows: Each mouse may be inspected every 2 to 3 days for three different parameters: (i) swelling of the hind ankle and foot, measured with calipers; (ii) erythema of each leg; and (iii) swelling of the fingers. The RA index for each mouse was expressed as the mean of the three scores from the individual parameters. At the end of the experiment (60 days), we determined the proportion of CD25+Foxp3+ cells in the lymph nodes and measured cytokine titers in the lymph nodes, joints, and serum.” for “limbs.”\nas §2"}, "[1]": {"details": "joint supernatant, CIA mice, day 60, mean n=3"}, "[2]": {"details": "lymph node supernatant, CIA mice, day 60, mean n=3"}, "[3]": {"details": "serum pooled from five CIA mice, day 60"}}}
{"smiles": "C[C@@H]1C[C@H]2[C@@H]3CCC4=CC(=O)C=C[C@]4(C)[C@@]3(F)[C@@H](O)C[C@]2(C)[C@@]1(O)C(=O)CO", "note": "[Dexamethasone, dexamethasone]", "values": [{"measurement": "IL-10", "setting": "IL-10", "result": 71.6, "unit": "pg/mL"}, {"measurement": "TNF-α J", "setting": "TNF-α; [1]", "result": 49.20, "unit": "pg/mL"}, {"measurement": "TNF-α LN", "setting": "TNF-α; [2]", "result": 107.90, "unit": "pg/mL"}, {"measurement": "TNF-α S", "setting": "TNF-α; [3]", "result": 24.2, "unit": "pg/mL"}, {"measurement": "IL-1β J", "setting": "IL-1β; [1]", "result": 38.43, "unit": "pg/mL"}, {"measurement": "IL-1β LN", "setting": "IL-1β; [2]", "result": 65.63, "unit": "pg/mL"}, {"measurement": "IL-1β S", "setting": "IL-1β; [3]", "result": 26.6, "unit": "pg/mL"}]}
